A short description of this data set: recombinant barcode read abundance after kanamycin selection (control-corrected) (log10(CPM+1)); higher = more efficient recombination; sequences stand for … in AGTGCAGAGAAAATCGGCCAGTTTTCTCTGCCTGCAGTCCGCATGCCGT…AGATTTATGCAGCGGACTGCCTTTCTCCCAAAGTGATAAACCGGACAGTATCATGGACCGGTTTTCCCGGTAATCCGTATTTGCAAGGTTGGTTTCACT; site = the 11-nt target. Summed up:
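Oligos holding a promoter, target, barcode and the J23119-driven first 104 bases of the bridge RNA were Gibson-cloned into a vector that supplied the other 73 bp plus a T7-inducible recombinase. This library was co-electroporated with a donor plasmid into E. coli. Two replicates went on chloramphenicol/ampicillin LB agar (control) and two on chloramphenicol/ampicillin/kanamycin with 0.1 mM IPTG. Recombination efficiency is read from averaged, control-corrected barcode counts per million at recombinant junctions, reported as log10(CPM+1).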
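Also: IS621 recombinase and bridge RNA in Escherichia coli cells.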

With “CGTGCGACTTGGGTTCTAACCTGTTGCAT (site CGTGCGACTAT)”, the “recombinant barcode read abundance (log10)” value was determined as 0.109.

With “CGTGCGACTTGGGTTCTAACCTGTTGCAT (site CGTTCGACTAT)”, the “recombinant barcode read abundance (log10)” value was found to be 0.174.

As for “CGTGGGGCTTGGGTTCTAACCTGTTGCCT (site CGTATGGCTAG)”, the “recombinant barcode read abundance (log10)” value is 0.075.

With “CGTGGGGCTTGGGTTCTAACCTGTTGCCT (site CGTGGGGCTAG)”, the “recombinant barcode read abundance (log10)” value turned out to be 0.156.

For the sequence “CGTTCTCCTTGGGTTCTAACCTGTTGCTA (site CGTTCTCCTTA)”, the “recombinant barcode read abundance (log10)” value was found to be 0.637.

On to “CGTTCTCCTTGGGTTCTAACCTGTTGCTA (site GCAAGGTCTAT)”, for which the “recombinant barcode read abundance (log10)” value was 0.0644.

In the case of “CTAAAGCCTTGGGTTCTAACCTGTTGCCT (site CTAAAGCCTAG)”, the “recombinant barcode read abundance (log10)” value was 1.25.

Regarding “CTAAAGCCTTGGGTTCTAACCTGTTGCCT (site CTAAGGCCTAG)”, the “recombinant barcode read abundance (log10)” value was found to be 0.2.

As for “CTAAATACTTGGGTTCTAACCTGTTGCCG (site CTAAATACTCG)”, the “recombinant barcode read abundance (log10)” value was found to be 0.154.

Regarding “CTAAATACTTGGGTTCTAACCTGTTGCCG (site CTAAGCACTCG)”, the “recombinant barcode read abundance (log10)” value is 0.188.

As for “CTAAATCCTTGGGTTCTAACCTGTTGCAT (site CTAAATCCTAT)”, the “recombinant barcode read abundance (log10)” value was determined as 0.963.

For “CTAAATCCTTGGGTTCTAACCTGTTGCAT (site CTAACTCCTAT)”, the “recombinant barcode read abundance (log10)” value worked out at 0.0807.

On to “CTAAATCCTTGGGTTCTAACCTGTTGCAT (site CTAAGTCCTAT)”, for which the “recombinant barcode read abundance (log10)” value is 0.0712.

With “CTAAATCCTTGGGTTCTAACCTGTTGCAT (site CTAATTCCTAT)”, the “recombinant barcode read abundance (log10)” value came to 0.232.

With “CTAACCTCTTGGGTTCTAACCTGTTGCTA (site CTAACCTCTAA)”, the “recombinant barcode read abundance (log10)” value is 0.0338.

For “CTAACCTCTTGGGTTCTAACCTGTTGCTA (site CTAACCTCTCA)”, the “recombinant barcode read abundance (log10)” value came out at 0.0433.

Take “CTAACCTCTTGGGTTCTAACCTGTTGCTA (site CTAACCTCTGA)”: the “recombinant barcode read abundance (log10)” value stood at 1.01.

In the case of “CTAACCTCTTGGGTTCTAACCTGTTGCTA (site CTAACCTCTTA)”, the “recombinant barcode read abundance (log10)” value is 1.42.

“CTAACGACTTGGGTTCTAACCTGTTGCGG (site CTAACGACTCC)”: the “recombinant barcode read abundance (log10)” value is 2.47.

For “CTAACGACTTGGGTTCTAACCTGTTGCGG (site CTAGCGACTCC)”, the “recombinant barcode read abundance (log10)” value was determined as 0.158.

For the sequence “CTAACTCCTTGGGTTCTAACCTGTTGCAT (site CTAAATCCTAT)”, the “recombinant barcode read abundance (log10)” value came out at 0.0865.

With “CTAACTCCTTGGGTTCTAACCTGTTGCAT (site CTAACTCCTAT)”, the “recombinant barcode read abundance (log10)” value was determined as 1.1.

For “CTAACTCCTTGGGTTCTAACCTGTTGCAT (site CTAAGTCCTAT)”, the “recombinant barcode read abundance (log10)” value stood at 0.0705.

As to “CTAACTCCTTGGGTTCTAACCTGTTGCAT (site CTAATTCCTAT)”, the “recombinant barcode read abundance (log10)” value was 0.0675.

As for “CTAAGAGCTTGGGTTCTAACCTGTTGCCG (site CTAAGAGCTCG)”, the “recombinant barcode read abundance (log10)” value was determined as 1.65.

As for “CTAAGAGCTTGGGTTCTAACCTGTTGCCG (site CTAAGAGCTCT)”, the “recombinant barcode read abundance (log10)” value turned out to be 0.504.

For the sequence “CTAAGCCCTTGGGTTCTAACCTGTTGCGG (site CTAAGCCCTCC)”, the “recombinant barcode read abundance (log10)” value amounted to 1.99.

For “CTAAGCCCTTGGGTTCTAACCTGTTGCGG (site CTGAGCCCTCG)”, the “recombinant barcode read abundance (log10)” value worked out at 0.0837.

As to “CTAAGCTCTTGGGTTCTAACCTGTTGCTG (site CTAAGCTCTAA)”, the “recombinant barcode read abundance (log10)” value amounted to 0.259.

With “CTAAGCTCTTGGGTTCTAACCTGTTGCTG (site CTAAGCTCTCA)”, the “recombinant barcode read abundance (log10)” value amounted to 1.25.

As for “CTAAGCTCTTGGGTTCTAACCTGTTGCTG (site CTAAGCTCTGA)”, the “recombinant barcode read abundance (log10)” value was 0.23.

Turning to “CTAAGCTCTTGGGTTCTAACCTGTTGCTG (site CTAAGCTCTTA)”, the “recombinant barcode read abundance (log10)” value is 0.349.

As to “CTAAGGTCTTGGGTTCTAACCTGTTGCAT (site CTAAGGTCTAA)”, the “recombinant barcode read abundance (log10)” value was 0.688.

As to “CTAAGGTCTTGGGTTCTAACCTGTTGCAT (site CTAAGGTCTAC)”, the “recombinant barcode read abundance (log10)” value turned out to be 0.176.

For “CTAAGGTCTTGGGTTCTAACCTGTTGCAT (site CTAAGGTCTAG)”, the “recombinant barcode read abundance (log10)” value is 0.214.

Consider “CTAAGGTCTTGGGTTCTAACCTGTTGCAT (site CTAAGGTCTAT)”, for which the “recombinant barcode read abundance (log10)” value stood at 2.33.

On to “CTAAGTCCTTGGGTTCTAACCTGTTGCAT (site CTAAATCCTAT)”, for which the “recombinant barcode read abundance (log10)” value was 0.809.

As for “CTAAGTCCTTGGGTTCTAACCTGTTGCAT (site CTAACTCCTAT)”, the “recombinant barcode read abundance (log10)” value came out at 0.0677.

Take “CTAAGTCCTTGGGTTCTAACCTGTTGCAT (site CTAAGTCCTAT)”: the “recombinant barcode read abundance (log10)” value was determined as 1.34.

“CTAAGTCCTTGGGTTCTAACCTGTTGCAT (site CTAATTCCTAT)”: the “recombinant barcode read abundance (log10)” value was found to be 0.116.

Turning to “CTAATAGCTTGGGTTCTAACCTGTTGCCA (site AGTCCGTCTAT)”, the “recombinant barcode read abundance (log10)” value was 0.186.

For “CTAATAGCTTGGGTTCTAACCTGTTGCCA (site CTAATAGCTTG)”, the “recombinant barcode read abundance (log10)” value came out at 0.262.

For “CTAATGACTTGGGTTCTAACCTGTTGCAC (site CTAATGACTGT)”, the “recombinant barcode read abundance (log10)” value was found to be 1.43.

As to “CTAATGACTTGGGTTCTAACCTGTTGCAC (site CTAATGCCTAT)”, the “recombinant barcode read abundance (log10)” value amounted to 0.227.

As to “CTAATGCCTTGGGTTCTAACCTGTTGCAT (site CTAATGACTGT)”, the “recombinant barcode read abundance (log10)” value turned out to be 0.0624.

As for “CTAATGCCTTGGGTTCTAACCTGTTGCAT (site CTAATGCCTAT)”, the “recombinant barcode read abundance (log10)” value turned out to be 0.175.

Turning to “CTAATTACTTGGGTTCTAACCTGTTGCAC (site CTAATTACTGT)”, the “recombinant barcode read abundance (log10)” value worked out at 0.249.

Consider “CTAATTACTTGGGTTCTAACCTGTTGCAC (site GTAACTACTGT)”, for which the “recombinant barcode read abundance (log10)” value is 0.114.

Turning to “CTAATTACTTGGGTTCTAACCTGTTGCCT (site CTAATTACTAG)”, the “recombinant barcode read abundance (log10)” value came out at 0.946.

For the sequence “CTAATTACTTGGGTTCTAACCTGTTGCCT (site CTACTTACTAG)”, the “recombinant barcode read abundance (log10)” value stood at 0.0931.

Turning to “CTAATTACTTGGGTTCTAACCTGTTGCCT (site CTAGTTACTAG)”, the “recombinant barcode read abundance (log10)” value is 0.159.

In the case of “CTAATTACTTGGGTTCTAACCTGTTGCCT (site CTATTTACTAG)”, the “recombinant barcode read abundance (log10)” value worked out at 0.196.

As for “CTAATTCCTTGGGTTCTAACCTGTTGCAT (site CTAAATCCTAT)”, the “recombinant barcode read abundance (log10)” value came out at 0.0881.

For “CTAATTCCTTGGGTTCTAACCTGTTGCAT (site CTAACTCCTAT)”, the “recombinant barcode read abundance (log10)” value stood at 0.0994.

As for “CTAATTCCTTGGGTTCTAACCTGTTGCAT (site CTAAGTCCTAT)”, the “recombinant barcode read abundance (log10)” value worked out at 0.0341.

As to “CTAATTCCTTGGGTTCTAACCTGTTGCAT (site CTAATTCCTAT)”, the “recombinant barcode read abundance (log10)” value came out at 0.252.

Consider “CTACACTCTTGGGTTCTAACCTGTTGCCT (site CAACACTCTAG)”, for which the “recombinant barcode read abundance (log10)” value was 1.07.

Consider “CTACACTCTTGGGTTCTAACCTGTTGCCT (site CCACACTCTAG)”, for which the “recombinant barcode read abundance (log10)” value came to 0.409.

On to “CTACACTCTTGGGTTCTAACCTGTTGCCT (site CGACACTCTAG)”, for which the “recombinant barcode read abundance (log10)” value was found to be 0.28.

Regarding “CTACACTCTTGGGTTCTAACCTGTTGCCT (site CTACACTCTAG)”, the “recombinant barcode read abundance (log10)” value was determined as 2.18.

As for “CTACAGCCTTGGGTTCTAACCTGTTGCTT (site CTACAACCTAA)”, the “recombinant barcode read abundance (log10)” value is 0.636.

Turning to “CTACAGCCTTGGGTTCTAACCTGTTGCTT (site CTACACCCTAA)”, the “recombinant barcode read abundance (log10)” value came to 0.0559.

On to “CTACAGCCTTGGGTTCTAACCTGTTGCTT (site CTACAGCCTAA)”, for which the “recombinant barcode read abundance (log10)” value is 0.798.

For the sequence “CTACAGCCTTGGGTTCTAACCTGTTGCTT (site CTACATCCTAA)”, the “recombinant barcode read abundance (log10)” value amounted to 0.0933.

Regarding “CTACCAACTTGGGTTCTAACCTGTTGCCT (site CTACCAACTAG)”, the “recombinant barcode read abundance (log10)” value was 0.41.

In the case of “CTACCAACTTGGGTTCTAACCTGTTGCCT (site CTACCACCTAG)”, the “recombinant barcode read abundance (log10)” value was 0.0179.

With “CTACCAACTTGGGTTCTAACCTGTTGCCT (site CTACCAGCTAG)”, the “recombinant barcode read abundance (log10)” value came out at 0.124.

With “CTACCAACTTGGGTTCTAACCTGTTGCCT (site CTACCATCTAG)”, the “recombinant barcode read abundance (log10)” value was 0.0148.

Consider “CTACCAGCTTGGGTTCTAACCTGTTGCCT (site CTACCAACTAG)”, for which the “recombinant barcode read abundance (log10)” value came out at 0.191.

Turning to “CTACCAGCTTGGGTTCTAACCTGTTGCCT (site CTACCACCTAG)”, the “recombinant barcode read abundance (log10)” value is 0.0143.

As for “CTACCAGCTTGGGTTCTAACCTGTTGCCT (site CTACCAGCTAG)”, the “recombinant barcode read abundance (log10)” value was 1.17.

As for “CTACCAGCTTGGGTTCTAACCTGTTGCCT (site CTACCATCTAG)”, the “recombinant barcode read abundance (log10)” value came to 0.0991.

Regarding “CTACCATCTTGGGTTCTAACCTGTTGCCG (site CTACCATCTCG)”, the “recombinant barcode read abundance (log10)” value turned out to be 0.255.

In the case of “CTACCATCTTGGGTTCTAACCTGTTGCCG (site CTACCGTCTCC)”, the “recombinant barcode read abundance (log10)” value was determined as 0.157.

For the sequence “CTACCCTCTTGGGTTCTAACCTGTTGCAT (site CTAACCTCTAT)”, the “recombinant barcode read abundance (log10)” value amounted to 0.026.

With “CTACCCTCTTGGGTTCTAACCTGTTGCAT (site CTACCCTCTAT)”, the “recombinant barcode read abundance (log10)” value was 2.87.

For the sequence “CTACCCTCTTGGGTTCTAACCTGTTGCAT (site CTAGCCTCTAT)”, the “recombinant barcode read abundance (log10)” value was determined as 0.0456.

The record behind these values is the supplement of paper PMC11208160.
